Here are results for four compounds from ChEMBL document CHEMBL3399934, “Cannabidiol (CBD) and its analogs: a review of their effects on inflammation” (Bioorg Med Chem, 2015).

One series concerns Neutrophil. The series can be described thus: Inhibition of human neutrophil migration incubated for 30 mins prior to fMLP challenge by boyden chamber assay. Format: functional, cell-based.
Series [1] deals with Cannabinoid receptor 1 (Mus musculus, UniProt P47746). Nature of the series: Partial agonist activity at mouse CB1 receptor by vas deferens assay.
Cannabinoid receptor 1 (Mus musculus, UniProt P47746), sequence (P47746 whole entry): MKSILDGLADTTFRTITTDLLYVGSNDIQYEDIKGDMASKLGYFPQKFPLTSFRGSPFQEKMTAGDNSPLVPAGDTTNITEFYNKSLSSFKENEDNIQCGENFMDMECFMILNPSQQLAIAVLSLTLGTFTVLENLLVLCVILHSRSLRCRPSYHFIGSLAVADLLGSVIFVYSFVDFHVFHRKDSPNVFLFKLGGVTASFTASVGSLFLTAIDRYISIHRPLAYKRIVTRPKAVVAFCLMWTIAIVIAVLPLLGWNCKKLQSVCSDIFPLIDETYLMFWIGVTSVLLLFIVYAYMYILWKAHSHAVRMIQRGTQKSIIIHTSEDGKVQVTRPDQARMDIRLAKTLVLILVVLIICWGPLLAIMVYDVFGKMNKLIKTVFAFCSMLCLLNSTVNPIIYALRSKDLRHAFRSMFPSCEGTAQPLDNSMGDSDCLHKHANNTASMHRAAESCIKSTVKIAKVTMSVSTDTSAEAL
The target in series [2] is Cannabinoid receptor 1 (Rattus norvegicus, UniProt P20272). Nature of the series: Binding affinity to rat CB1 receptor.
Cannabinoid receptor 1 (Rattus norvegicus, UniProt P20272), sequence (P20272 whole entry): as the sequence (P47746 whole entry) above, with D95E counted along it
Series [3] is described as follows: Reduction of sphingomyelin content in human fibroblast at 30 uM. It is filed as ADME, cell-based. Details: scale not given: the % may be the effect or the level left.
Series [4] can be described thus: Antiinflammatory activity in human glial cells assessed as reduction of LPS-induced S100B expression at 1 uM. Format: functional. Also on record: scale not given: the % may be the effect or the level left.
Another series concerns HEK293. The series can be described thus: Induction of rat TRPV3 expressed in HEK293 cells assessed as increase of Ca2+ level relative to ionomycin. It is filed as cell-based.
A short description of series [5]: Antiinflammatory activity in human glial cells assessed as reduction of LPS-induced iNOS expression at 1 uM. Also on record: scale not given: the % may be the effect or the level left. Format: functional.
Series [6] deals with Fibroblast. Nature of the series: Reduction of lecithin content in Niemann-Pick patient fibroblast at 30 uM. Details: scale not given: the % may be the effect or the level left. Format: functional, Homo sapiens.
Series [7] has as its system Fibroblast. Nature of the series: Reduction of sphingomyelin content in Niemann-Pick patient fibroblast at 30 uM. Format: functional, Homo sapiens. Also on record: scale not given: the % may be the effect or the level left.
Series [8] in a line: Antiinflammatory activity in human glial cells assessed as reduction of LPS-induced nitrate expression at 1 uM. Also on record: scale not given: the % may be the effect or the level left. It is filed as functional.
The test system of series [9] is Mus musculus. Nature of the series: Reduction of IL-1beta protein expression in C57BL/6J mouse hippocampus inoculated with human amyloid beta (1 to 42) at 10 ug/kg, ip after 10 days by immunofluorescence analysis. Format: functional. Also on record: scale not given: the % may be the effect or the level left.
Series [10] in a line: Induction of rat TRPV3 expressed in HEK293 cells assessed as increase of Ca2+ level. It is filed as cell-based.
Series [11] has as its system Mus musculus. Nature of the series: Reduction of NO release in C57BL/6J mouse hippocampus inoculated with human amyloid beta (1 to 42) at 10 ug/kg, ip after 7 days. Details: scale not given: the % may be the effect or the level left. Format: functional.
The test system of series [12] is Mus musculus. Nature of the series: Reduction of IL-1beta release in C57BL/6J mouse hippocampus inoculated with human amyloid beta (1 to 42) at 10 ug/kg, ip after 10 days by ELISA. Format: functional. Details: scale not given: the % may be the effect or the level left. In general terms: An ELISA detects its analyte on a solid surface through an enzyme-linked reagent.

Series [13] in a line: Reduction of lecithin content in human fibroblast at 30 uM. It is filed as ADME, cell-based. Also on record: scale not given: the % may be the effect or the level left.
In series [14] the test system is Mus musculus. The series can be described thus: Reduction of iNOS protein expression in C57BL/6J mouse hippocampus inoculated with human amyloid beta (1 to 42) at 10 ug/kg, ip after 10 days by immunofluorescence analysis. Also on record: scale not given: the % may be the effect or the level left. It is filed as functional.
For series [15], the system named is Mus musculus. The series can be described thus: Antiinflammatory activity in Swiss OF1 mouse assessed as reduction of LPS-induced TNF-alpha expression at 10 mg/kg, ip by immunoblotting analysis. It is filed as functional. Details: scale not given: the % may be the effect or the level left. To be noted: route intraperitoneal.

Molecules are shown by their SMILES. pEC50, pIC50, pKi: −log10 of the molar value. Bounds are passed on as bounds.

In the series on Neutrophil, `C=C(C)[C@@H]1CCC(C)=C[C@H]1c1c(C)cc(O)cc1O` showed a pIC50 of 7.48.

As for `C=C(C)[C@@H]1CCC(C)=C[C@H]1c1ccc(CCCCC)cc1O`, the pIC50 on Cannabinoid receptor 1 [1] was 7.51.

On Cannabinoid receptor 1 [2], `CCCCCCC(C)(C)c1cc(OC)c([C@H]2C=C(CO)[C@H]3C[C@@H]2C3(C)C)c(OC)c1` had a pKi of under 5.00.

`C=C(C)[C@@H]1CCC(C)=C[C@H]1c1c(O)cc(CCCCC)cc1O` [CANNABIDIOL]: the Activity is 17% in [3]; over 50% in series [4]; 50% in the series on HEK293; over 50% in series [5]; 21% in the series on Fibroblast [6]; 77% in the series with Fibroblast [7]. The Activity was over 50% in series [8]; 50% in the series with Mus musculus [9]; 50% with Mus musculus [11]; 50% in the series on Mus musculus [12]; 21% in series [13]; 50% with Mus musculus [14]. In the series on Mus musculus [15], the Activity is reported as 50%. For the same compound, the pEC50 in [10] was 5.43. In addition, the pIC50 with Neutrophil is 9.35.

Broadly, the pIC50 is the negative decadic logarithm of the IC50, by convention in mol/L. As usually defined, the pKi is the Ki on a negative log10 scale, so that one unit is a factor of ten. The pEC50 is −log10 of the EC50, conventionally taken in molar units.
